Reference: patent US20070032529A1, “Pyrazole compounds and their use as antidiabetes agents” (Japan Tobacco Inc., priority 2005, published 2007)
Where a name gives a salt, the structure may show the parent alone.

The molecules below were run against T1, recombinant human liver glycogen phosphorylase (Homo sapiens, UniProt P06737) (assay: Measuring liver glycogen phosphorylase activity (forward reaction system, NADPH absorbance at 340 nm)). Settings: compound concentration 100 nmol (in parentheses).
T1 construct: made in house; host or cells: Sf9 insect cells (crude homogenate, diluted, used as the enzyme solution)
T1 sequence (P06737 1-847): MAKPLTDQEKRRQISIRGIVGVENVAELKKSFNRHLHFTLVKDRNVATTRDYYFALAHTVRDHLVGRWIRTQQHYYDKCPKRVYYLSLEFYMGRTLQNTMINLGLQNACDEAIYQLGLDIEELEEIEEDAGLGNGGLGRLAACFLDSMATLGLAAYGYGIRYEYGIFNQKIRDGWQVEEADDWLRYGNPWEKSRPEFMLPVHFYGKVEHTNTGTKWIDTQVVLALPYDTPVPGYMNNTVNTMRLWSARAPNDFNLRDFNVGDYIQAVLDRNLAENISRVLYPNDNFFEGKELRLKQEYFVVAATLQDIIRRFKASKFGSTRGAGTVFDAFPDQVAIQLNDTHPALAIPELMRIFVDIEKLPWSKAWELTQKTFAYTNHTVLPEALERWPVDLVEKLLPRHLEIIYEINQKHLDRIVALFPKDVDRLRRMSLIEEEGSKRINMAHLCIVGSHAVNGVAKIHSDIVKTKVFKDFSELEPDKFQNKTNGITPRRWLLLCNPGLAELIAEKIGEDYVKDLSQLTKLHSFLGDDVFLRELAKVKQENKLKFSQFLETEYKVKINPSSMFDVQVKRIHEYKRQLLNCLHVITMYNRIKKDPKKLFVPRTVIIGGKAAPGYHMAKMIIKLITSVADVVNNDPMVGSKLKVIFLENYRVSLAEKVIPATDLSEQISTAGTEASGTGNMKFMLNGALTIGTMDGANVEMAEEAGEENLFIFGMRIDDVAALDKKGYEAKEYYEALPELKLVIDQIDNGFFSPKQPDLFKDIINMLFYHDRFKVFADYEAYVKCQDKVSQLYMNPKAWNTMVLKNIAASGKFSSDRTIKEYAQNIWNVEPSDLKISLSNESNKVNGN
Assay type: biochemical
Experimental: [Pharmacological Test] 1. Exemplary Test (1) Method for Measuring Liver Glycogen Phosphorylase Activity
The measurement of glycogen phosphorylase activity was carried out by a method using the forward reaction system.
The measurement of glycogen phosphorylase activity using the forward reaction system was carried out as follows. Glucose-1-phosphate prepared from glycogen by glycogen phosphorylase was converted into glucono-δ-lactone 6-phosphate through transphosphorylation and dehydrogenation using phosphoglucomutase and glucose-6-phosphate dehydrogenase (G6PDH). NADPH generated from NADP during the dehydrogenation by G6PDH was detected.
A homogenate of the Sf9 cells which expressed exogenously recombinant human liver glycogen phosphorylase was diluted with 100 mmol/LBES buffer solution (pH 6.8, containing 2 mmol/L EDTA) and the dilution was used as the enzyme solution of human liver glycogen phosphorylase. As the substrate, a phosphate buffer (containing 16 mmol/L KH2PO4, 24 mmol/L Na2HPO4) was used. A mixture of 8 U/mL phosphoglucomutase and 60 U/mL G6PDH was prepared in BES buffer solution. Buffer solution (containing 1.4 mmol/L NADP, 30 mmol/L MgCl2, 8 μmol/L glucose-1,6-diphosphate, 8 mg/mL glycogen, 40 mmol/LBES, 0.8 mmol/L EDTA) for reaction and a glucose solution (containing 75 mmol/L glucose, 100 mmol/LBES, 2 mmol/L EDTA) were prepared individually. The test compound was dissolved in 1% DMSO solution.
The enzymatic reaction was begun by adding 20 μL of the recombinant human liver glycogen phosphorylase solution and 20 μL of the mixture of phosphoglucomutase and G6PDH to the mixture of 20 μL of the glucose solution, 20 μL of the substrate, 100 μL of the buffer solution for reaction and 20 μL of the test compound solution. As control, 1% DMSO solution was added instead of the test compound. The mixture without the substrate was used as blank. The absorbance at 340 nm was measured immediately after the reaction started. The absorbance at 340 nm was measured again after reacting at room temperature for 75 minutes. The enzymatic activity is a value obtained by subtracting the blank variation in absorbance over 75 minutes from the variation in absorbance over 75 minutes.
The inhibition rate (%) of the test compound was calculated by the expression “(1-enzymatic activity of test compound/enzymatic activity of control)×100.”
A linear equation was determined from the two concentration points with the 50% inhibition rate therebetween, and the IC50 value was calculated from the concentration at the intersection of the line with the 50% inhibition rate.
“IC50” in the tables indicates the above-described enzyme inhibitory activity with respect to liver glycogen phosphorylase, and the activity to inhibit liver glycogen phosphorylase was represented as ++ when the IC50 value (nmol/L) was less than 100 nmol/L, as + when the IC50 value was between 100 nmol/L and 300 nmol/L. When IC50 is 300 nmol/L or more, an inhibition rate (%) at a certain concentration of the compound (I) of the present invention is shown in Tables. For example, when the inhibition rate is 20% at a concentration of 300 nmol, the rate is described as 20% (300).

With `CCOC(=O)C(C)(C)c1cnc(NC(=O)c2cc(NC(=O)c3cc(F)c(F)cc3Cl)[nH]n2)c(OCC)c1` [Example 1-149] the “inhibition rate (%) at a certain concentration” value was 20.8%(100).
For `CCOc1cc(C(C)(C)C(=O)O)cnc1NC(=O)c1cc(NC(=O)c2cc(F)c(F)cc2Cl)[nH]n1` [Example 1-151], the “inhibition rate (%) at a certain concentration” value was 13.3%(100).

Same assay, conditions: compound concentration 100 nmol (in parentheses); read-out: inhibition rate (%) at a certain concentration

Point of comparison: `O=C(Nc1cccc2ncccc12)c1cc(NC(=O)c2cc(F)c(F)cc2Cl)[nH]n1` [Example 1-145], inhibition at 0.1 µM 12.8%. Against it:
- O=C(NCCc1cccnc1)c1cc(NC(=O)c2cc(F)c(F)cc2Cl)[nH]n1 [Example 1-140] — higher, 30.8%
- O=C(NCCc1ccncc1)c1cc(NC(=O)c2cc(F)c(F)cc2Cl)[nH]n1 [Example 1-141] — higher, 31.4%
- O=C(Nc1cnccn1)c1cc(NC(=O)c2cc(F)c(F)cc2Cl)[nH]n1 [Example 1-144] — lower, 5%
- O=C(Nc1cccc2cccnc12)c1cc(NC(=O)c2cc(F)c(F)cc2Cl)[nH]n1 [Example 1-146] — lower, 11.3%
- O=C(Nc1cccc2cnccc12)c1cc(NC(=O)c2cc(F)c(F)cc2Cl)[nH]n1 [Example 1-147] — lower, 9.6%
- CCOC(=O)C(C)(C)c1cnc(NC(=O)c2cc(NC(=O)c3cc(F)c(F)cc3Cl)[nH]n2)c(OCC)c1 [Example 1-148] — higher, 14.1%
- CCOc1cc(C(C)(C)C(=O)O)cnc1NC(=O)c1cc(NC(=O)c2cc(F)c(F)cc2Cl)[nH]n1 [Example 1-150] — higher, 13.8%
- C[C@@H](NC(=O)c1cc(NC(=O)c2cc(F)c(F)cc2Cl)[nH]n1)c1ccccc1 [Example 2-20] — higher, 43.1%
- C[C@H](NC(=O)c1cc(NC(=O)c2cc(F)c(F)cc2Cl)[nH]n1)c1ccccc1 [Example 2-21] — lower, 5.7%
- CC(NC(=O)c1cc(NC(=O)c2cc(F)c(F)cc2Cl)[nH]n1)c1cccnc1 (stereo not drawn) [Example 2-26] — higher, 36.4%
- O=C(NCc1cccc(-c2ccccc2)c1)c1cc(NC(=O)c2cc(F)c(F)cc2Cl)[nH]n1 [Example 2-29] — higher, 45.8%
- O=C(N[C@@H]1c2ccccc2C[C@@H]1O)c1cc(NC(=O)c2cc(F)c(F)cc2Cl)[nH]n1 [Example 2-30] — lower, 1.8%
- O=C(N[C@H]1c2ccccc2C[C@H]1O)c1cc(NC(=O)c2cc(F)c(F)cc2Cl)[nH]n1 [Example 2-31] — lower, 5.5%

Same assay, conditions: compound concentration 300 nmol (in parentheses); read-out: inhibition rate (%) at a certain concentration

Molecule `CN(C(=O)c1cc(NC(=O)c2cc(F)c(F)cc2Cl)[nH]n1)c1cccc(C(=O)O)c1` [Example 2-14] has an inhibition at 0.3 µM of 37.5%.

Same assay, conditions: compound concentration 490 nmol (in parentheses); read-out: inhibition rate (%) at a certain concentration

`CN(Cc1ccccc1)C(=O)c1cc(NC(=O)c2cc(F)c(F)cc2Cl)[nH]n1` [Example 3-1, 5-(2-chloro-4,5-difluoro-benzoylamino)-1H-pyrazole-3-carboxylic acid benzyl-methyl-amide] showed an inhibition at 0.49 µM of 50%.

Same assay, conditions: compound concentration 640 nmol (in parentheses); read-out: inhibition rate (%) at a certain concentration

`O=C(Nc1ccccc1)c1cc(NC(=O)c2cc(F)c(F)cc2Cl)[nH]n1` [Example 3-3] showed an inhibition at 0.64 µM of 50%.

Same assay, conditions: compound concentration 1000 nmol (in parentheses); read-out: inhibition rate (%) at a certain concentration

In the case of `O=C(Nc1cc(C(=O)N2CCCCC2)n[nH]1)c1cc(F)c(F)cc1Cl` [Example 3-5], the inhibition at 1 µM is reported as 41.1%.

Same assay, conditions: enzyme inhibitory activity with respect to liver glycogen phosphorylase; class symbols

`O=C(NCc1ccc(-c2csnn2)cc1)c1cc(NC(=O)c2cc(F)c(F)cc2Cl)[nH]n1` [Example 1-142] and `CC(=O)Nc1ccc(CNC(=O)c2cc(NC(=O)c3cc(F)c(F)cc3Cl)[nH]n2)cc1` [Example 2-18] cannot be ordered by IC50: less than 100 nM for the first, less than 100 nM for the second.

`O=C(NCc1cnccn1)c1cc(NC(=O)c2cc(F)c(F)cc2Cl)[nH]n1` [Example 1-152] and `O=C(NCc1nnc[nH]1)c1cc(NC(=O)c2cc(F)c(F)cc2Cl)[nH]n1` [Example 2-2-1, 5-(2-chloro-4,5-difluoro-benzoylamino)-1H-pyrazole-3-carboxylic acid (4H-[1,2,4]triazol-3-ylmethyl)-amide dihydrochloride] cannot be ordered by IC50: less than 100 nM for the first, less than 100 nM for the second.

`O=C(NCc1ccc(N2CCSCC2)nc1)c1cc(NC(=O)c2cc(F)c(F)cc2Cl)[nH]n1` [Example 1-153] and `O=C(NCc1ccc(N2CCS(=O)(=O)CC2)nc1)c1cc(NC(=O)c2cc(F)c(F)cc2Cl)[nH]n1` [Example 1-154] cannot be ordered by IC50: less than 100 nM for the first, less than 100 nM for the second.

`O=C(NCc1cc(Br)c(Br)s1)c1cc(NC(=O)c2cc(F)c(F)cc2Cl)[nH]n1` [Example 1-155] and `O=C(NCc1cc(Cl)c(Cl)s1)c1cc(NC(=O)c2cc(F)c(F)cc2Cl)[nH]n1` [Example 1-161] cannot be ordered by IC50: less than 100 nM for the first, less than 100 nM for the second.

First: O=C(NCc1ccc(Cl)s1)c1cc(NC(=O)c2cc(F)c(F)cc2Cl)[nH]n1 [Example 1-156]
Second: O=C(NCc1ccc(-c2cccs2)s1)c1cc(NC(=O)c2cc(F)c(F)cc2Cl)[nH]n1 [Example 1-159]
The IC50 of the first is lower: less than 100 nM for the first, 100 to 300 nM for the second. The first is the more potent here.

`CCc1nc(C)oc1CNC(=O)c1cc(NC(=O)c2cc(F)c(F)cc2Cl)[nH]n1` [Example 1-157] and `Cc1nc(CNC(=O)c2cc(NC(=O)c3cc(F)c(F)cc3Cl)[nH]n2)c(C)o1` [Example 1-162] cannot be ordered by IC50: less than 100 nM for the first, less than 100 nM for the second.

`CCc1nc(C)c(CNC(=O)c2cc(NC(=O)c3cc(F)c(F)cc3Cl)[nH]n2)o1` [Example 1-158] and `CCCCCCc1nc(C)c(CNC(=O)c2cc(NC(=O)c3cc(F)c(F)cc3Cl)[nH]n2)o1` [Example 1-163] cannot be ordered by IC50: less than 100 nM for the first, less than 100 nM for the second.

`COc1ccsc1CNC(=O)c1cc(NC(=O)c2cc(F)c(F)cc2Cl)[nH]n1` [Example 1-160] and `COc1cscc1CNC(=O)c1cc(NC(=O)c2cc(F)c(F)cc2Cl)[nH]n1` [Example 1-164] cannot be ordered by IC50: less than 100 nM for the first, less than 100 nM for the second.

`Cc1nc(-c2ccccc2)oc1CNC(=O)c1cc(NC(=O)c2cc(F)c(F)cc2Cl)[nH]n1` [Example 1-165] and `Cc1nc(-c2ccccc2)c(CNC(=O)c2cc(NC(=O)c3cc(F)c(F)cc3Cl)[nH]n2)o1` [Example 1-166] cannot be ordered by IC50: less than 100 nM for the first, less than 100 nM for the second.

`CCCCCCc1nc(C)oc1CNC(=O)c1cc(NC(=O)c2cc(F)c(F)cc2Cl)[nH]n1` [Example 1-167] and `Cc1ccc(CNC(=O)c2cc(NC(=O)c3cc(F)c(F)cc3Cl)[nH]n2)c(=O)[nH]1` [Example 2-33] cannot be ordered by IC50: less than 100 nM for the first, less than 100 nM for the second.

`CS(=O)(=O)Nc1ccc(CNC(=O)c2cc(NC(=O)c3cc(F)c(F)cc3Cl)[nH]n2)cc1` [Example 2-16] and `CC(=O)Nc1cccc(CNC(=O)c2cc(NC(=O)c3cc(F)c(F)cc3Cl)[nH]n2)c1` [Example 2-17] cannot be ordered by IC50: less than 100 nM for the first, less than 100 nM for the second.

`O=C(NCc1csc(-c2ccccc2)n1)c1cc(NC(=O)c2cc(F)c(F)cc2Cl)[nH]n1` [Example 2-19] and `O=C(NCc1ccc(-c2ccccc2)nc1)c1cc(NC(=O)c2cc(F)c(F)cc2Cl)[nH]n1` [Example 2-32] cannot be ordered by IC50: less than 100 nM for the first, less than 100 nM for the second.

Molecule `O=C(NCc1ccc(Oc2ccccc2)nc1)c1cc(NC(=O)c2cc(F)c(F)cc2Cl)[nH]n1` [Example 2-22] has an IC50 of less than 100 nM.
